{
  "source": "BindingDB's records for doi:10.1016/j.bmcl.2003.08.010",
  "about": "(University of Manchester, 2003)",
  "assay": "Inhibitory activity against Escherichia coli thymidine phosphorylase",
  "data": [
    {"smiles": "C=CCNC(=S)NC=C1C(=O)NC(=O)NC1=O", "note": "[1-Allyl-3-(2,4,6-trioxo-tetrahydro-pyrimidin-5-ylidenemethyl)-thiourea]", "values": [
      {"measurement": "IC50", "value": 94.8, "unit": "µM"}
    ]}
  ]
}
